Assay: xn = mol fraction of the nth substance listed

OCCO + CN(C)C=O
Settings | viscosity [mPa·s]
293.15 K, 101 kPa, x2 = 0.0864 | 16.12
293.15 K, 101 kPa, x2 = 0.1758 | 11.93
293.15 K, 101 kPa, x2 = 0.3623 | 6.277
293.15 K, 101 kPa, x2 = 0.5609 | 3.23
293.15 K, 101 kPa, x2 = 0.7734 | 1.66
293.15 K, 101 kPa, x2 = 0.8848 | 1.191
298.15 K, 100 kPa, x1 = 0.1049 | 1.27
298.15 K, 100 kPa, x1 = 0.2019 | 1.64
298.15 K, 100 kPa, x1 = 0.3063 | 2.27
298.15 K, 100 kPa, x1 = 0.3993 | 2.9
298.15 K, 100 kPa, x1 = 0.4986 | 3.95
298.15 K, 100 kPa, x1 = 0.6048 | 5.35
298.15 K, 100 kPa, x1 = 0.7069 | 7.24
298.15 K, 100 kPa, x1 = 0.8032 | 9.44
298.15 K, 100 kPa, x1 = 0.9054 | 12.85
298.15 K, 101 kPa, x1 = 0.5408 | 3.065
298.15 K, 101 kPa, x2 = 0.0864 | 13.24
298.15 K, 101 kPa, x2 = 0.1758 | 9.921
298.15 K, 101 kPa, x2 = 0.3623 | 5.381
298.15 K, 101 kPa, x2 = 0.5609 | 2.852
298.15 K, 101 kPa, x2 = 0.7734 | 1.518
298.15 K, 101 kPa, x2 = 0.8848 | 1.105
303.15 K, 100 kPa, x1 = 0.1049 | 1.23
303.15 K, 100 kPa, x1 = 0.2019 | 1.52
303.15 K, 100 kPa, x1 = 0.3063 | 2.03
303.15 K, 100 kPa, x1 = 0.3993 | 2.63
303.15 K, 100 kPa, x1 = 0.4986 | 3.6
303.15 K, 100 kPa, x1 = 0.6048 | 4.53
303.15 K, 100 kPa, x1 = 0.7069 | 6.12
303.15 K, 100 kPa, x1 = 0.8032 | 7.92
303.15 K, 100 kPa, x1 = 0.9054 | 10.48
303.15 K, 101 kPa, x2 = 0.0864 | 10.91
303.15 K, 101 kPa, x2 = 0.1758 | 8.25
303.15 K, 101 kPa, x2 = 0.3623 | 4.639
303.15 K, 101 kPa, x2 = 0.5609 | 2.551
303.15 K, 101 kPa, x2 = 0.7734 | 1.392
303.15 K, 101 kPa, x2 = 0.8848 | 1.027
308.15 K, 100 kPa, x1 = 0.1049 | 1.15
308.15 K, 100 kPa, x1 = 0.2019 | 1.4
308.15 K, 100 kPa, x1 = 0.3063 | 1.81
308.15 K, 100 kPa, x1 = 0.3993 | 2.41
308.15 K, 100 kPa, x1 = 0.4986 | 3.16
308.15 K, 100 kPa, x1 = 0.6048 | 4.05
308.15 K, 100 kPa, x1 = 0.7069 | 5.18
308.15 K, 100 kPa, x1 = 0.8032 | 6.83
308.15 K, 100 kPa, x1 = 0.9054 | 8.79
308.15 K, 101 kPa, x1 = 0.0257 | 0.758
308.15 K, 101 kPa, x1 = 0.0458 | 0.816
308.15 K, 101 kPa, x1 = 0.0974 | 0.872
308.15 K, 101 kPa, x1 = 0.1399 | 0.956
308.15 K, 101 kPa, x1 = 0.1921 | 1.151
308.15 K, 101 kPa, x1 = 0.2568 | 1.132
308.15 K, 101 kPa, x1 = 0.2919 | 1.453
308.15 K, 101 kPa, x1 = 0.3715 | 1.288
308.15 K, 101 kPa, x1 = 0.3822 | 1.814
308.15 K, 101 kPa, x1 = 0.4762 | 1.898
308.15 K, 101 kPa, x1 = 0.4917 | 2.392
308.15 K, 101 kPa, x1 = 0.5807 | 2.801
308.15 K, 101 kPa, x1 = 0.5882 | 3.131
308.15 K, 101 kPa, x1 = 0.6745 | 3.878
308.15 K, 101 kPa, x1 = 0.6889 | 4.137
308.15 K, 101 kPa, x1 = 0.7677 | 5.167
308.15 K, 101 kPa, x1 = 0.783 | 5.498
308.15 K, 101 kPa, x1 = 0.8456 | 6.582
308.15 K, 101 kPa, x1 = 0.885 | 7.454
308.15 K, 101 kPa, x1 = 0.9229 | 8.355
308.15 K, 101 kPa, x1 = 0.9484 | 9.02
308.15 K, 101 kPa, x1 = 0.968 | 10.48
308.15 K, 101 kPa, x2 = 0.0864 | 9.133
308.15 K, 101 kPa, x2 = 0.1758 | 7.023
308.15 K, 101 kPa, x2 = 0.3623 | 4.044
308.15 K, 101 kPa, x2 = 0.5609 | 2.289
308.15 K, 101 kPa, x2 = 0.7734 | 1.285
308.15 K, 101 kPa, x2 = 0.8848 | 0.957
313.15 K, 100 kPa, x1 = 0.1049 | 1.08
313.15 K, 100 kPa, x1 = 0.2019 | 1.28
313.15 K, 100 kPa, x1 = 0.3063 | 1.67
313.15 K, 100 kPa, x1 = 0.3993 | 2.24
313.15 K, 100 kPa, x1 = 0.4986 | 2.82
313.15 K, 100 kPa, x1 = 0.6048 | 3.47
313.15 K, 100 kPa, x1 = 0.7069 | 4.54
313.15 K, 100 kPa, x1 = 0.8032 | 5.68
313.15 K, 100 kPa, x1 = 0.9054 | 7.45
313.15 K, 101 kPa, x2 = 0.0864 | 7.725
313.15 K, 101 kPa, x2 = 0.1758 | 5.998
313.15 K, 101 kPa, x2 = 0.3623 | 3.551
313.15 K, 101 kPa, x2 = 0.5609 | 2.064
313.15 K, 101 kPa, x2 = 0.7734 | 1.185
313.15 K, 101 kPa, x2 = 0.8848 | 0.8951
318.15 K, 100 kPa, x1 = 0.1049 | 0.96
318.15 K, 100 kPa, x1 = 0.2019 | 1.21
318.15 K, 100 kPa, x1 = 0.3063 | 1.53
318.15 K, 100 kPa, x1 = 0.3993 | 2.12
318.15 K, 100 kPa, x1 = 0.4986 | 2.43
318.15 K, 100 kPa, x1 = 0.6048 | 3.05
318.15 K, 100 kPa, x1 = 0.7069 | 3.98
318.15 K, 100 kPa, x1 = 0.8032 | 5.04
318.15 K, 100 kPa, x1 = 0.9054 | 6.45
318.15 K, 101 kPa, x2 = 0.0864 | 6.606
318.15 K, 101 kPa, x2 = 0.1758 | 5.171
318.15 K, 101 kPa, x2 = 0.3623 | 3.139
318.15 K, 101 kPa, x2 = 0.5609 | 1.873
318.15 K, 101 kPa, x2 = 0.7734 | 1.096
318.15 K, 101 kPa, x2 = 0.8848 | 0.8415
323.15 K, 100 kPa, x1 = 0.1049 | 0.87
323.15 K, 100 kPa, x1 = 0.2019 | 1.08
323.15 K, 100 kPa, x1 = 0.3063 | 1.38
323.15 K, 100 kPa, x1 = 0.3993 | 1.92
323.15 K, 100 kPa, x1 = 0.4986 | 2.19
323.15 K, 100 kPa, x1 = 0.6048 | 2.8
323.15 K, 100 kPa, x1 = 0.7069 | 3.53
323.15 K, 100 kPa, x1 = 0.8032 | 4.4
323.15 K, 100 kPa, x1 = 0.9054 | 5.59
323.15 K, 101 kPa, x2 = 0.0864 | 5.671
323.15 K, 101 kPa, x2 = 0.1758 | 4.507
323.15 K, 101 kPa, x2 = 0.3623 | 2.789
323.15 K, 101 kPa, x2 = 0.5609 | 1.711
323.15 K, 101 kPa, x2 = 0.7734 | 1.022
323.15 K, 101 kPa, x2 = 0.8848 | 0.7911
